Results published in patent US20180243317A1, “COMPOSITIONS COMPRISING A PI3K INHIBITOR AND AN HDAC INHIBITOR” (KARUS THERAPEUTICS LTD, priority 2015, published 2018).

Legend:
Human HDAC1 = molecular target: T1, Human HDAC1 (Homo sapiens, UniProt Q13547); assay: HDAC biochemical assay with acetylated AMC-labeled peptide substrate; conditions: read-out: IC50 HDAC 1
T1 construct: full length with C-terminal His-tag and C-terminal FLAG-tag; His-tag (C); FLAG-tag (C); made in house; host or cells: baculovirus expression system
Method: (§1) Activity against all zinc-dependent HDACs 1 to 11 was assessed by using an acetylated AMC-labeled peptide substrate. The substrate RHKKAc was used for all class I and IIb HDACs; for HDAC8, the substrate used was RHKAcKAc. […] All assays were based on the AMC-labeled substrate and developer combination.
(§2) The protocol involved a two-step reaction: first, the substrate with the acetylated lysine side chain is incubated with a sample containing HDAC activity, to produce the deacetylated products, which are then digested in the second step by the addition of developer to produce the fluorescent signal proportional to the amount of deacetylated substrates.
Human HDAC1 (GenBank Accession No. NM_004964), full length with C-terminal His-tag and C-terminal FLAG-tag, MW=56 kDa, expressed in baculovirus expression system.
(§3) Before use, 1 mg/mL BSA and DMSO are added.
(§4) Incubate for 2 hours at 30° C.
(§5) Fluorescence background signal is then subtracted from compound data signal.
(§6) Stage 1: Deacetylation of substrate by incubation of HDAC enzymes with compounds
(§7) Stage 2: Development by addition of Developer to digest the deacetylated substrate, and generate the fluorescent color; Detection: 360/460 Ex/Em

Recombinant human HDAC6 = molecular target: T2, Recombinant human HDAC6 (Homo sapiens, UniProt Q9UBN7); assay: as above; conditions: read-out: IC50 HDAC 6
T2 construct: GST (N); made in house; host or cells: Sf9 insect cells (baculovirus)
T2 sequence (Q9UBN7 1-1215): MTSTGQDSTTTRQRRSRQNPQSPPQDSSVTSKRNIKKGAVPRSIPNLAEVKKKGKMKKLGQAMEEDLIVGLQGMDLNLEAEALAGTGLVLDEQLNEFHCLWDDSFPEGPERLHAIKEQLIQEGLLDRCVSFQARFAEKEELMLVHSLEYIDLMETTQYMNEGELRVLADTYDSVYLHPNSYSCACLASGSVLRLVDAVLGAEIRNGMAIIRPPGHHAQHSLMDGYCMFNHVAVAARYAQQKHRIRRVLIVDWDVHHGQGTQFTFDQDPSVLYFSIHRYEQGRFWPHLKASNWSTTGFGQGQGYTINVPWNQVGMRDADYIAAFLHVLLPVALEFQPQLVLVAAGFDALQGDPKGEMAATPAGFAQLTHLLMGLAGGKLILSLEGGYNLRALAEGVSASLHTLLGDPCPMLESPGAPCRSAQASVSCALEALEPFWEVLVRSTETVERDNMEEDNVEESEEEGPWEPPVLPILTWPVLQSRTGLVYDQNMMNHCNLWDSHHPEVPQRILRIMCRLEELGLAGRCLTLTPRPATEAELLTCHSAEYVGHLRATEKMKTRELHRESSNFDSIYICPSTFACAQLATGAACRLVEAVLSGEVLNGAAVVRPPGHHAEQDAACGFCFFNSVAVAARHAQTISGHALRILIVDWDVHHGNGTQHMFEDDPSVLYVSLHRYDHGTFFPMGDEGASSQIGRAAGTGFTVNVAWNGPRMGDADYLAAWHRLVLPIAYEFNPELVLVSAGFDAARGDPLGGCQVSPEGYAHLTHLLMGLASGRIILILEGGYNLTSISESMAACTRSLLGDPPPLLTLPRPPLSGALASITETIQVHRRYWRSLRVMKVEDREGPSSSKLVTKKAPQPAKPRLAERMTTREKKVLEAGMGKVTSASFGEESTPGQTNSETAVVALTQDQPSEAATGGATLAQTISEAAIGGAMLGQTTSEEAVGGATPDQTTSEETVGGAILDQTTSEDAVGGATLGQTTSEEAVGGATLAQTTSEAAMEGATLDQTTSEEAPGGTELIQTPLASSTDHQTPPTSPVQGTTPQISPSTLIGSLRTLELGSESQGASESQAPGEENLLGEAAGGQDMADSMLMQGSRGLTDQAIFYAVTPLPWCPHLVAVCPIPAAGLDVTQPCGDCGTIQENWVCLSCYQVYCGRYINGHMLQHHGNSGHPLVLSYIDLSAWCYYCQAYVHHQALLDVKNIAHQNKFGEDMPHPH
Method: as §1, §2
Human HDAC5 (GenBank Accession No. NM_005474), full length with N-terminal GST tag, MW=150 kDa, expressed in baculovirus expression system. Recombinant human HDAC6 (GenBank Accession No. BC069243), full length, MW=180 kDa, was expressed by baculovirus in Sf9 insect cells using an N-terminal GST tag.
as §3, §4, §5, §6, §7

T1 sequence (Q13547 whole entry): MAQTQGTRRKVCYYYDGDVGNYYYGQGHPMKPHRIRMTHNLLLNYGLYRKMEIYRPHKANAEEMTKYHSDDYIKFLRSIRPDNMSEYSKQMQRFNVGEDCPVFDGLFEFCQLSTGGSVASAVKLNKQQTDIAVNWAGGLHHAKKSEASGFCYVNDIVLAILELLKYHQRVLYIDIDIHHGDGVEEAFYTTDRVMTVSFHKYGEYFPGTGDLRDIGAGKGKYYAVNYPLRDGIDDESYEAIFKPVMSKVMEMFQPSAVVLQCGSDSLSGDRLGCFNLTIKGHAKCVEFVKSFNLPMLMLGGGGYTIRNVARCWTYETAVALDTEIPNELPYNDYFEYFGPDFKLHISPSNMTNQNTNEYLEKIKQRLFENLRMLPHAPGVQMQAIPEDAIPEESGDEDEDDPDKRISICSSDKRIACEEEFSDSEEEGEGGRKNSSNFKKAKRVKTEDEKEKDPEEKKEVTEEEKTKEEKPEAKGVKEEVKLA

Row | IC50 (Human HDAC1) [nM] | IC50 (Recombinant human HDAC6) [nM] | SMILES
1 | > 10000 | ≤ 500 | Cc1nnc(N(Cc2ccc(C(=O)NO)cc2)c2ccccn2)s1 [Example H, N-Hydroxy-4-(((5-methyl-1,3,4-thiadiazol-2-yl)(pyridin-2-yl)amino)methyl)benzamide]
2 | > 10000 | ≤ 500 | O=C(NO)c1ccc(CN(c2cnccn2)c2cccnn2)c(F)c1 [Example NN, 3-Fluoro-N-hydroxy-4-{[(pyrazin-2-yl)(pyridazin-3-yl)amino]methyl}benzamide]
3 | 1000 to 10000 | ≤ 500 | O=C(NO)c1ccc(CN(c2cnccn2)c2cnccn2)nc1 [Example II, 6-{[Bis(pyrazin-2-yl)amino]methyl}-N-hydroxypyridine-3-carboxamide]
4 | 1000 to 10000 | ≤ 500 | O=C(NO)c1ccc(CN(c2cnccn2)c2cc(-c3ccc(F)cc3)ccn2)cc1 [Example U, 4-(((4-(4-Fluorophenyl)pyridin-2-yl)(pyrazin-2-yl)amino)methyl)-N-hydroxybenzamide]
5 | > 10000 | ≤ 500 | O=C(NO)c1ccc(CN(c2ccc(F)cn2)c2cnccn2)cc1 [Example L, 4-(((5-Fluoropyridin-2-yl)(pyrazin-2-yl)amino)methyl)-N-hydroxybenzamide]
6 | > 10000 | ≤ 500 | O=C(NO)c1ccc(CN(c2ccccn2)c2nc(C(F)(F)F)ns2)cc1 [Example W, N-Hydroxy-4-((pyridin-2-yl(3-(trifluoromethyl)-1,2,4-thiadiazol-5-yl)amino)methyl)benzamide]
7 | > 10000 | 500 to 1000 | Cc1cccc(N(Cc2ccc(C(=O)NO)cc2)c2ccc(N3CCOCC3)cn2)n1 [Example CC, N-Hydroxy-4-(((6-methylpyridin-2-yl)(5-morpholinopyridin-2-yl)amino)methyl)benzamide]
8 | 1000 to 10000 | ≤ 500 | O=C(NO)c1ccc(CN(c2ccccn2)c2nc3ccccc3o2)cc1 [Example I, 4-((Benzo[d]oxazol-2-yl(pyridin-2-yl)amino)methyl)-N-hydroxybenzamide]
9 | > 10000 | ≤ 500 | Cn1c(N(Cc2ccc(C(=O)NO)cc2)c2ccccn2)nc2ccccc21 [Example J, N-Hydroxy-4-(((1-methyl-1H-benzo[d]imidazol-2-yl)(pyridin-2-yl)amino)methyl)benzamide]
10 | > 10000 | ≤ 500 | COc1cccnc1N(Cc1ccc(C(=O)NO)cn1)c1cnccn1 [Example LL, N-Hydroxy-6-{[(3-methoxypyridin-2-yl)(pyrazin-2-yl)amino]methyl}pyridine-3-carboxamide]
11 | > 10000 | ≤ 500 | COc1cccnc1N(Cc1ccc(C(=O)NO)cc1)c1ccc(N2CCOCC2)cn1 [Example Z, N-Hydroxy-4-(((3-methoxypyridin-2-yl)(5-morpholinopyridin-2-yl)amino)methyl)benzamide]
12 | > 10000 | 1000 to 10000 | O=C(NO)c1ccc(CN(c2ccc(F)cn2)c2nc(C(F)(F)F)ns2)cc1 [Example T, 4-(((5-Fluoropyridin-2-yl)(3-(trifluoromethyl)-1,2,4-thiadiazol-5-yl)amino)methyl)-N-hydroxybenzamide]
13 | > 10000 | ≤ 500 | Cn1ccc(N(Cc2ccc(C(=O)NO)cc2)c2ccc(F)cn2)n1 [Example O, 4-(((5-Fluoropyridin-2-yl)(1-methyl-1H-pyrazol-3-yl)amino)methyl)-N-hydroxybenzamide]
14 | > 10000 | ≤ 500 | COc1cccnc1N(Cc1ccc(C(=O)NO)cc1)c1ccc(C)cn1 [Example X, N-Hydroxy-4-(((3-methoxypyridin-2-yl)-(5-methylpyridin-2-yl)amino)methyl)benzamide]
15 | 1000 to 10000 | ≤ 500 | COc1ccnc(N(Cc2ccc(C(=O)NO)cc2)c2cnccn2)c1 [Example PP, N-Hydroxy-4-{[(4-methoxypyridin-2-yl)(pyrazin-2-yl)amino]methyl}benzamide]
16 | > 10000 | ≤ 500 | Cc1nsc(N(Cc2ccc(C(=O)NO)cc2)c2ccc(F)cn2)n1 [Example R, 4-(((5-Fluoropyridin-2-yl)(3-methyl-1,2,4-thiadiazol-5-yl)amino)methyl)-N-hydroxybenzamide]
17 | > 10000 | ≤ 500 | COc1ccc(N(Cc2ccc(C(=O)NO)cc2)c2ccc(C)cn2)nc1 [Example Y, N-Hydroxy-4-(((5-methoxypyridin-2-yl)(5-methylpyridin-2-yl)amino)methyl)benzamide]
18 | 1000 to 10000 | ≤ 500 | COc1ccc(N(Cc2ccc(C(=O)NO)cc2)c2ccc(N3CCOCC3)cn2)nc1 [Example AA, N-Hydroxy-4-(((5-methoxypyridin-2-yl)(5-morpholinopyridin-2-yl)amino)methyl)benzamide]
19 | 1000 to 10000 | ≤ 500 | O=C(NO)c1ccc(CN(c2ccccn2)c2nccc3sccc23)cc1 [Example BB, N-Hydroxy-4-((pyridin-2-yl(thieno[3,2-c]pyridin-4-yl)amino)methyl)benzamide]
20 | > 10000 | ≤ 500 | O=C(NO)c1ccc(CN(c2cnccn2)c2cccnn2)cc1 [Example MM, N-Hydroxy-4-{[(pyrazin-2-yl)(pyridazin-3-yl)amino]methyl}benzamide]
21 | 1000 to 10000 | ≤ 500 | O=C(NO)c1ccc(CN(c2cnccn2)c2cnccn2)c(F)c1 [Example HH, 4-{[Bis(pyrazin-2-yl)amino]methyl}-3-fluoro-N-hydroxybenzamide]
22 | 1000 to 10000 | ≤ 500 | COc1cccnc1N(Cc1ccc(C(=O)NO)cc1F)c1cnccn1 [Example KK, 3-Fluoro-N-hydroxy-4-{[(3-methoxypyridin-2-yl)(pyrazin-2-yl)amino]methyl}benzamide]
23 | > 10000 | 1000 to 10000 | Cc1nsc(N(Cc2ccc(C(=O)NO)cc2)c2cc(-c3ccc(F)cc3)ccn2)n1 [Example S, 4-(((4-(4-Fluorophenyl)pyridin-2-yl)(3-methyl-1,2,4-thiadiazol-5-yl)amino)methyl)-N-hydroxybenzamide]
24 | > 10000 | ≤ 500 | O=C(NO)c1ccc(CN(c2ccncn2)c2cnccn2)nc1 [Example FF, N-Hydroxy-6-{[(pyrazin-2-yl)(pyrimidin-4-yl)amino]methyl}pyridine-3-carboxamide]
25 | 1000 to 10000 | ≤ 500 | Cc1nsc(N(Cc2ccc(C(=O)NO)cc2)c2cnccn2)n1 [Example OO, N-Hydroxy-4-{[(3-methyl-1,2,4-thiadiazol-5-yl)(pyrazin-2-yl)amino]methyl}benzamide]
26 | > 10000 | ≤ 500 | O=C(NO)c1ccc(CN(c2ccc(F)cn2)c2nc3ccccc3o2)cc1 [Example P, 4-((Benzo[d]oxazol-2-yl(5-fluoropyridin-2-yl)amino)methyl)-N-hydroxybenzamide]
27 | 1000 to 10000 | ≤ 500 | COc1cccnc1N(Cc1ccc(C(=O)NO)cc1)c1cnccn1 [Example JJ, N-Hydroxy-4-{[(3-methoxypyridin-2-yl)(pyrazin-2-yl)amino]methyl}benzamide]
28 |  | ≤ 500 | O=C(NO)c1ccc(CN(c2ccccn2)c2nc3ccccc3s2)cc1 [Example V, 4-((Benzo[d]thiazol-2-yl(pyridin-2-yl)amino)methyl)-N-hydroxybenzamide]
